Assay results taken from patent US9976141B2, “Compositions and methods for inhibiting gene expression of Hif2alpha” (Arrowhead Madison Inc., priority 2015, dated 2018).

system: human (tumor) Hif2α (EPAS1) mRNA; assay: Hif2α knockdown in orthotopic RCC tumor bearing mice, single injection of RNAi trigger-delivery polymer conjugate, RT-qPCR (Table 7); assay type: in vivo; settings: RNAi trigger 50 μg, polymer 064 125 μg; single tail vein injection; relative to isotonic glucose
Procedure, shortened: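 A single intravenous dose of Hif2α RNAi trigger–delivery polymer conjugate, or isotonic glucose vehicle, was given to nude mice with subcapsular A498-SEAP renal tumours (about 5–6 weeks old). At the indicated time, tumour RNA was assayed by biplex TaqMan qPCR against CycA, and relative expression was calculated by ΔΔCT versus vehicle.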

Substance	Relative Expression day 4 (Hif2α mRNA in kidney tumor)
AD03188 (antisense AGUAAAACAAUUGUGUACUUU; sense AGUACACAAUUGUUUUACUT; Hif2alpha RNAi agent antisense strand; modified_base 2,4,6,8,10,14,16,18 /mod_base = “2′-deoxy-2′-fluoro corresponding nucleoside”; modified_base 1,3,5,7,9,11,12,13,15,17,19,20,21 /mod_base = “2′-O-methyl corresponding nucleoside”; modified_base 2,3,20,21 /mod_base = “5′-phosphorothioate corresponding nucleotide”; Hif2alpha RNAi agent sense strand; modified_base 3,5,7,8,9,11,13,17 /mod_base = “2′-deoxy-2′-fluoro corresponding nucleoside”; modified_base 1,2,4,6,10,12,14,15,16,18,19 /mod_base = “2′-O-methyl corresponding nucleoside”; modified_base 20 /mod_base = “3′-3′-linked nucleotide”; modi)	0.308
AD03189 (antisense UGUAAAACAAUUGUGUACUUUAA; sense AAAGUACACAAUUGUUUUACA; Hif2alpha RNAi agent antisense strand; modified_base 2,4,6,8,10,14,16,18 /mod_base = “2′-deoxy-2′-fluoro corresponding nucleoside”; modified_base 1,3,5,7,9,11,12,13,15,17,19,20,21,22,23 /mod_base = “2′-O-methyl corresponding nucleoside”; modified_base 2,3,22,23 /mod_base = “5′-phosphorothioate corresponding nucleotide”; Hif2alpha RNAi agent sense strand; modified_base 3,5,7,9,10,11,13,15,19 /mod_base = “2′-deoxy-2′-fluoro corresponding nucleoside”; modified_base 1,2,4,6,8,12,14,16,17,18,20 /mod_base = “2′-O-methyl corresponding nucleoside”; modified_base 21 /mod_base = “3′-3′-linked nucleoti)	0.245
AD03190 (antisense AGUAAAACAAUUGUGUACUUUAA; sense AAAGUACACAAUUGUUUUACT; Hif2alpha RNAi agent antisense strand; modified_base 2,4,6,8,10,14,16,18 /mod_base = “2′-deoxy-2′-fluoro corresponding nucleoside”; modified_base 1,3,5,7,9,11,12,13,15,17,19,20,21,22,23 /mod_base = “2′-O-methyl corresponding nucleoside”; modified_base 2,3,22,23 /mod_base = “5′-phosphorothioate corresponding nucleotide”; Hif2alpha RNAi agent sense strand; modified_base 3,5,7,9,10,11,13,15,19 /mod_base = “2′-deoxy-2′-fluoro corresponding nucleoside”; modified_base 1,2,4,6,8,12,14,16,17,18,20 /mod_base = “2′-O-methyl corresponding nucleoside”; modified_base 21 /mod_base = “3′-3′-linked nucleoti)	0.269
AD03191 (antisense AGUAAAACAAUUGUGUACUUUAA; sense AAAGUACACAAUUGUUUUACT; Hif2alpha RNAi agent antisense strand; modified_base 2,4,6,8,10,14,16,18 /mod_base = “2′-deoxy-2′-fluoro corresponding nucleoside”; modified_base 1,3,5,7,9,11,12,13,15,17,19,20,21,22,23 /mod_base = “2′-O-methyl corresponding nucleoside”; modified_base 2,3,22,23 /mod_base = “5′-phosphorothioate corresponding nucleotide”; Hif2alpha RNAi agent sense strand; modified_base 7,9,10,11 /mod_base = “2′-deoxy-2′-fluoro corresponding nucleoside”; modified_base 1,2,3,4,5,6,8,12,13,14,15,16,17,18,19,20 /mod_base = “2′-O-methyl corresponding nucleoside”; modified_base 21 /mod_base = “3′-3′-linked nucleoti)	0.307
AD03192 (antisense AGUAAAACAAUUGUGUACUUUAA; sense AAAGUACACAAUUGUUUUACT; Hif2alpha RNAi agent antisense strand; modified_base 2,4,6,8,10,14,18 /mod_base = “2′-deoxy-2′-fluoro corresponding nucleoside”; modified_base 1,3,5,7,9,11,12,13,15,16,17,19,20,21,22,23 /mod_base = “2′-O-methyl corresponding nucleoside”; modified_base 2,3,22,23 /mod_base = “5′-phosphorothioate corresponding nucleotide”; Hif2alpha RNAi agent sense strand; modified_base 5,7,9,10,11,13,15 /mod_base = “2′-deoxy-2′-fluoro corresponding nucleoside”; modified_base 1,2,3,4,6,8,12,14,16,17,18,19,20 /mod_base = “2′-O-methyl corresponding nucleoside”; modified_base 21 /mod_base = “3′-3′-linked nucleoti)	0.286
AD03193 (antisense AGUAAAACAAUUGUGUACUUUAA; sense AAAGUACACAAUUGUUUUACT; Hif2alpha RNAi agent antisense strand; modified_base 2,4,6,8,14 /mod_base = “2′-deoxy-2′-fluoro corresponding nucleoside”; modified_base 1,3,5,7,9,10,11,12,13,15,16,17,18,19,20,21,22,23 /mod_base = “2′-O-methyl corresponding nucleoside”; modified_base 2,3,22,23 /mod_base = “5′-phosphorothioate corresponding nucleotide”; Hif2alpha RNAi agent sense strand; modified_base 9,10,11 /mod_base = “2′-deoxy-2′-fluoro corresponding nucleoside”; modified_base 1,2,3,4,5,6,7,8,12,13,14,15,16,17,18,19,20 /mod_base = “2′-O-methyl corresponding nucleoside”; modified_base 21 /mod_base = “3′-3′-linked nucleoti)	0.275
AD03253 (antisense UUUCAUGAAAUCGUUACGUUG; sense ACGUAACGAUUUCAUGAAAT; Hif2alpha RNAi agent antisense strand; modified_base 2,4,6,8,14 /mod_base = “2′-deoxy-2′-fluoro corresponding nucleoside”; modified_base 1,3,5,7,9,10,11,12,13,15,16,17,18,19,20,21 /mod_base = “2′-O-methyl corresponding nucleoside”; modified_base 2,3,20,21 /mod_base = “5′-phosphorothioate corresponding nucleotide”; Hif2alpha RNAi agent sense strand; modified_base 7,8,9 /mod_base = “2′-deoxy-2′-fluoro corresponding nucleoside”; modified_base 1,2,3,4,5,6,10,11,12,13,14,15,16,17,18,19 /mod_base = “2′-O-methyl corresponding nucleoside”; modified_base 20 /mod_base = “3′-3′-linked nucleotide”; modi)	0.188
AD03254 (antisense AUUCAUGAAAUCGUUACGUUG; sense ACGUAACGAUUUCAUGAAUT; Hif2alpha RNAi agent antisense strand; modified_base 2,4,6,8,14 /mod_base = “2′-deoxy-2′-fluoro corresponding nucleoside”; modified_base 1,3,5,7,9,10,11,12,13,15,16,17,18,19,20,21 /mod_base = “2′-O-methyl corresponding nucleoside”; modified_base 2,3,20,21 /mod_base = “5′-phosphorothioate corresponding nucleotide”; Hif2alpha RNAi agent sense strand; modified_base 7,8,9 /mod_base = “2′-deoxy-2′-fluoro corresponding nucleoside”; modified_base 1,2,3,4,5,6,10,11,12,13,14,15,16,17,18,19 /mod_base = “2′-O-methyl corresponding nucleoside”; modified_base 20 /mod_base = “3′-3′-linked nucleotide”; modi)	0.295
AD03255 (antisense UUUCAUGAAAUCGUUACGUUGAT; sense AACGUAACGAUUUCAUGAAAT; Hif2alpha RNAi agent antisense strand; modified_base 2,4,6,8,14 /mod_base = “2′-deoxy-2′-fluoro corresponding nucleoside”; modified_base 1,3,5,7,9,10,11,12,13,15,16,17,18,19,20,21,22 /mod_base = “2′-O-methyl corresponding nucleoside”; modified_base 23 /mod_base = “3′-3′-linked nucleotide”; modified_base 2,3,22,23 /mod_base = “5′-phosphorothioate corresponding nucleotide”; Hif2alpha RNAi agent sense strand; modified_base 8,9,10 /mod_base = “2′-deoxy-2′-fluoro corresponding nucleoside”; modified_base 1,2,3,4,5,6,7,11,12,13,14,15,16,17,18,19,20 /mod_base = “2′-O-methyl corresponding nucleoside”)	0.264
